Reference: US8912214B2, “Use of Chk2 kinase inhibitors for cancer treatment” (The United States of America, as Represented by the …, priority 2005, dated 2014)
Where two headings read alike, the source gives them in different places.

What was measured:
Format in all cases: biochemical
Chk2 [1] = biological target: T1, Chk2 (Homo sapiens, UniProt O96017); test: IMAP Chk2 high-throughput screening assay (fluorescence polarization)
Chk2 [2] = biological target: T1, Chk2; test: In vitro Chk2 kinase assay (γ32P-ATP, SDS-PAGE); conditions: with increasing concentration; 30° C.; FIGS. 4 and 5
Experimental: (§1) Following on from the data obtained from high-throughput screening, another assay is employed to measure Chk2 kinase activity. This assay is based on using γ^32P-labeled ATP to mediate phosphorylation of the target substrate and autophosphorylation of Chk2. Histone H1 or Cdc25C is used as test substrate. The reactions are performed at 30° C. for appropriate times, then the samples have 2×SDS loading buffer added to quench the reaction. The samples are boiled for about 5 minutes and then subjected to SDS-PAGE.

Chk1 [3] = biological target: T2, Chk1 (Homo sapiens, UniProt O14757); test: Chk1 inhibitory activity of screening hits; conditions: FIG. 2
T2 sequence (O14757 1-476): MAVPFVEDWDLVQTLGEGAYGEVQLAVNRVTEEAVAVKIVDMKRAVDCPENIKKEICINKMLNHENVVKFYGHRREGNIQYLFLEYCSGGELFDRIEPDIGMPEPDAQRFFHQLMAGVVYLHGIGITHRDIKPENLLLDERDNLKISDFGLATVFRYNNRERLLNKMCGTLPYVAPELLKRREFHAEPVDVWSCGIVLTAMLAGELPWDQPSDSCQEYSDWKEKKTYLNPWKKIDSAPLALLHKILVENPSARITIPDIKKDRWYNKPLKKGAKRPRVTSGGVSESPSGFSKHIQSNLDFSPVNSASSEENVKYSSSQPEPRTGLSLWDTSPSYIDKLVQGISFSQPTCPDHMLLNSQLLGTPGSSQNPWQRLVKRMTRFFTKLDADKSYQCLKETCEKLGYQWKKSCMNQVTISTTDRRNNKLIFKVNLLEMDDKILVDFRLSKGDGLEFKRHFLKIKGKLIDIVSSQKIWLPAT

Chk1 [4] = biological target: T2, Chk1; test: In vitro Chk1 kinase assay (γ32P-ATP, SDS-PAGE); conditions: FIG. 6
Source text: FIG. 6 illustrates inhibition of Chk1 kinase activity by NSC 109555 using an in vitro kinase assay. Top bands indicate the level of Chk1 autophosphorylation, bottom bands indicate the level of histone H1 phosphorylation.
as §1
Staurosporine is used as a positive control to confirm Chk2 inhibition (See, FIG. 4). Following on from this, NSC 109555 is used in this assay and is depicted in FIG. 5. […].

[5] = IMAP assay, fluorescein-labeled peptide substrate, read-out: EC50 (Chk2 inhibition)

T1 sequence (O96017 whole entry): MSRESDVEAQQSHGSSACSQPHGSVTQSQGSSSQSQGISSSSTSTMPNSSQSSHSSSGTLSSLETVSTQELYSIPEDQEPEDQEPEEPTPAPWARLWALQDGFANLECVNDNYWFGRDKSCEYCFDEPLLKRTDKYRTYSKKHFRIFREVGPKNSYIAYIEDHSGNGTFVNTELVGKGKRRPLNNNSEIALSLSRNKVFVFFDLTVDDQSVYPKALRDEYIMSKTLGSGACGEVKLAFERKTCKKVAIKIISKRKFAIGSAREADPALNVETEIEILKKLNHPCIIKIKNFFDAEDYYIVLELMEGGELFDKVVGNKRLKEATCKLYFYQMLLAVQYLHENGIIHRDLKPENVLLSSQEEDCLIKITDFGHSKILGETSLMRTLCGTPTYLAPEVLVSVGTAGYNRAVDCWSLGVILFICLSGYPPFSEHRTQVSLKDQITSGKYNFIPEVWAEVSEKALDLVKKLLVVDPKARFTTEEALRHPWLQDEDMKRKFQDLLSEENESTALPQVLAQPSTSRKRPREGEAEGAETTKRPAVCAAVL

Row | SMILES | EC50 (Chk2 [1]; [5]) [µM] | also measured
1 | O=[N+]([O-])c1ccc2c(c1)C(=NO)c1cc([N+](=O)[O-])ccc1-2 [Compound 7] | – | EC50 (Chk2 [1]): 0.8 to 4 µM
2 | C/C(=N\NC(=N)N)c1ccc(NC(=O)Nc2ccc(/C(C)=N/NC(=N)N)cc2)cc1 [NSC 109555] | 0.051 | Chk2 kinase activity (autophosphorylation and histone H1 phosphorylation) (Chk2 [2]): inhibited; inhibitory effect on Chk1 activity (Chk1 [3]): little or no inhibitory effect; kinase activity of Chk1 (Chk1 [4]): did not appear to inhibit
3 | CCN(CC)CCCNc1ccc2nc(C)n3c4ccc(O)cc4c(=O)c1c23 [Compound 8] | ~20 | –

Now from value to molecule, other results behind:

Row | EC50 (Chk2 [1]; [5]) [µM] | SMILES | also measured
4 | ~4 | C/C(=N\O)c1ccc2c(c1)C(=NO)c1cc(/C(C)=N/O)ccc1-2 [Compound 5] | –
5 | 0.6 to 3.8 | C/C(=N\O)c1ccc2c(c1)C(=NO)c1ccccc1-2 [Compound 6] | –
